From patent US20200268864A1, “CANCER VACCINE COMPOSITIONS AND METHODS FOR USING SAME TO TREAT CANCER” (Dana-Farber Cancer Institute, Inc., priority 2017, published 2020)
“Also recorded” adds a separate entry of the source.

Tests used:
PPM tumor bearing mice = assay: Flow cytometry of tumor-infiltrating immune cells in PPM tumors; conditions: mouse, in vivo
Method: Tumors were first mechanically disrupted by chopping, then chemically digested in collagenase buffer (8 mL DMEM, 0.1 mL 1M HEPES, 0.5 mL FBS, 0.2 mL Pen/Strep, 1 m, 10× collagenase/hyaluronidase (Stemcell Technologies), 0.2 mL of 1 mg/mL DNase I (Stemcell Technologies) at 37° C. for 45 min. Single-cell suspensions of spleen and lymph nodes were obtained by mashed through a 70 um strainer using the plunger of a 3 mL or 5 mL syringe. Single cells suspensions were treated with red blood lysis buffer (4 mL NH4Cl+1 mL PBS with 2% calf serum) and washed with FACS buffer. Single cells suspensions were incubated with LIVE/DEAD Fixable Aqua Dead Cell Stain (Life Technologies, Cat # L34965) for 30 min and then blocked with anti-CD16/32 (BioLegend, clone 93) for 20 min on ice. Samples were then incubated with appropriate antibodies for 30 min. on ice. The Foxp3 staining buffer set (eBioscience, Cat #00-5523-00) was applied for intracellular markers staining. For the intracellular cytokine analysis, cells were stimulated with Leukocyte Activation Cocktail (BD Biosciences, Cat #550583) at 37° C. for 5 hours prior to FACS staining. […] Flow cytometry was performed on an LSR II (BD Biosciences) or LSRFortessa™ HTS (BD Biosciences) at the DFCI flow cytometry core facility, and all the data were analyzed using FlowJo software.

PBM cells = assay: Cell death of PBM cells in culture; assay type: cell-based, mouse; conditions: 2.5 uM for 24 hours
[1] = tested on: human DCs co-cultured with UWB1.289; assay: Co-culture of human DCs with olaparib-treated UWB1.289 cells; assay type: cell-based; conditions: BRCA1-deficient UWB1.289
Method: (§1) Bone marrow cells were isolated from FVB/NJ mice and cultured in RPMI-1640 containing 10% FBS and 20 ng/ml GM-CSF. BMDCs (bone marrow derived dendritic cells) were harvested for in vitro co-culture assay on day 7 to day 10. About 3×10^5 PBM or PPM tumor cells were cultured in a 6-well plate for 24 hr. and then treated with DMSO or olaparib. After 24 hr incubation with DMSO, olaparib, or olaparib in combination with other drugs (cell cycle inhibitor or apoptosis inhibitor), drugs were removed and tumor cells were washed twice with PBS. BMDCs were added and co-cultured with PBM or PPM cells at a ratio of 1:1 in 1.5 ml culture media in the presence of GM-CSF (20 ng/ml) and lipofectamine (2 μl) for 24 hr. Co-cultured cells were harvested for flow cytometry analysis and floating cells (percentage of BMDCs is about 90%), or RNA analysis. Cell culture supernatants were collected for detection of IFN-β with the ELISA kit. BMDCs generated from C57BL/6J mice were applied for the coculture of BMDCs with ID8 tumor cells. Human dendritic cells purchased from Lonza were used for the coculture of human DCs with DMSO or olaparib-treated human ovarian cancer cells ([…] and UWB1.289+BRCA1).

[2] = tested on: STING pathway in BMDCs co-cultured with PBM cells; assay: Co-culture of BMDCs with olaparib-treated PBM tumor cells; assay type: cell-based, mouse
Method: (§2) Blood was obtained by retro-orbital sampling at intermediate time points or experimental end points. Blood cells and plasma/sera were separated by centrifugation at 1,500×g for 5 min. at 4° C. Plasmaisera were sent out to Eve Technologies for cytokine array analysis (Chemokine Array 31-Plex and Mouse Procarta IFN 2-plex Featured Assay). Plasma/sera were applied to ELISA according to manufacturer's instructions. For in vitro experiments, cell culture supernatants were obtained by centrifugation at 1,500×g for 5 min. at 4° C. to remove all debris and cells, and were then subjected to ELISA analysis. IFN-β was detected using the LEGEND MAX™ Mouse IFN-β ELISA Kit (BioLegend).
as §1
About 50 to 100 mg of tumor samples were homogenized in 1 ml of TRIzol™ Reagent supplied with 200 μl of stainless steel beads and 0.2 ml of chloroform was added to the samples. Samples were vortexed vigorously for 15 seconds and then incubated at room temperature for 2 to 3 minutes. After centrifugation at 12,000×g for 15 minutes at 4° C., upper aqueous phase of the samples was carefully removed to a new tube and the total RNA was purified using an RNeasy® Mini Kit (Qiagen) according to manufactory's instruction. For the in vitro cultured cell samples, total RNA was isolated using an RNeasy® Mini Kit. The qPCR was performed on an Applied Biosystems 7300 machine after the total RNA was reverse transcribed to cDNA using the SuperScript® III First-Strand Synthesis System (Invitrogen). Primers used for qPCR were as follows: […]

PBM tumor-bearing mice = assay: Flow cytometry of peripheral blood and splenic immune cells; conditions: mouse, in vivo
Method: Tumors were first mechanically disrupted by chopping, then chemically digested in collagenase buffer (8 mL DMEM, 0.1 mL 1M HEPES, 0.5 mL FBS, 0.2 mL Pen/Strep, 1 m, 10× collagenase/hyaluronidase (Stemcell Technologies), 0.2 mL of 1 mg/mL DNase I (Stemcell Technologies) at 37° C. for 45 min. Single-cell suspensions of spleen and lymph nodes were obtained by mashed through a 70 um strainer using the plunger of a 3 mL or 5 mL syringe. Single cells suspensions were treated with red blood lysis buffer (4 mL NH4Cl+1 mL PBS with 2% calf serum) and washed with FACS buffer. Single cells suspensions were incubated with LIVE/DEAD Fixable Aqua Dead Cell Stain (Life Technologies, Cat # L34965) for 30 min and then blocked with anti-CD16/32 (BioLegend, clone 93) for 20 min on ice. Samples were then incubated with appropriate antibodies for 30 min. on ice. The Foxp3 staining buffer set (eBioscience, Cat #00-5523-00) was applied for intracellular markers staining. For the intracellular cytokine analysis, cells were stimulated with Leukocyte Activation Cocktail (BD Biosciences, Cat #550583) at 37° C. for 5 hours prior to FACS staining. The following antibodies were used in the experiments and were purchased from BioLegend unless otherwise indicated: CD45 (clone 30-F11), TCRβ (clone H57-597), CD4 (clone RM4-5), CD8 (clone 53-6.7), CD44 (clone IM7), CD62L (MEL-14), CD25 (PC61), IFNγ (clone XMG1.2), TNFα(clone MP6-XT22), PD-1 (clone 29F.1A12), Tim-3 (clone RMT3-23), LAG-3 (clone C9B7W), CD11b (clone M1/70), CD11c (clone […]), F4/80 (clone BM8), Gr-1 (clone RB6-BC5), Ly-6C (clone HK1.4), Ly-6G (clone 1A8), MHCII (clone M5/114.15.2), CD80 (clone 16-10A1), CD86 (clone GL-1), MHC1 (clone KH114). FoxP3 (clone FJK-16 s; eBioscience), Phospho-IRF-3 (Ser396) (clone D6O1M, Cell signaling technology), Phospho-TBK1/NAK (Ser172) (clone D52C2, Cell signaling technology), and LIVE/DEAD® Fixable Aqua Dead Cell Stain Kit (Life Technologies Cat L34965). Flow cytometry was performed on an LSR II (BD Biosciences) or LSRFortessa™ HTS (BD Biosciences) at the DFCI flow cytometry core facility, and all the data were analyzed using FlowJo software.

[3] = tested on: STING pathway in BMDCs co-cultured with PPM cells; assay: Co-culture of BMDCs with olaparib-treated PPM tumor cells; assay type: cell-based, mouse
Method: as §2
Bone marrow cells were isolated from FVB/NJ mice and cultured in RPMI-1640 containing 10% FBS and 20 ng/ml GM-CSF. BMDCs (bone marrow derived dendritic cells) were harvested for in vitro co-culture assay on day 7 to day 10. About 3×10^5 PBM or PPM tumor cells were cultured in a 6-well plate for 24 hr. and then treated with DMSO or olaparib. After 24 hr incubation with DMSO, olaparib, or olaparib in combination with other drugs (cell cycle inhibitor or apoptosis inhibitor), drugs were removed and tumor cells were washed twice with PBS. BMDCs were added and co-cultured with PBM or PPM cells at a ratio of 1:1 in 1.5 ml culture media in the presence of GM-CSF (20 ng/ml) and lipofectamine (2 μl) for 24 hr. […]

O=C(c1cc(Cc2n[nH]c(=O)c3ccccc23)ccc1F)N1CCN(C(=O)C2CC2)CC1 [olaparib, Olaparib]
intratumoral immune responses in PPM tumor bearing mice (PPM tumor bearing mice): not found
cell death in PBM cells (PBM cells): did not induce substantial cell death
levels of p-TBK1+p-IRF3+ and IFN-β in human DCs [1]: Increased levels
phosphorylation of TBK1 and IRF3 (p-TBK1+p-IRF3+) in BMDCs ([2]; co-cultured with olaparib-treated PBM cells vs DMSO): increased phosphorylation
IFN-β and CXCL10 expression in BMDCs ([2]; co-cultured with olaparib-treated vs non-treated/DMSO PBM cells, mRNA and protein): Significantly enhanced expression; also recorded: markedly increased expression
IFN gamma and TNF alpha production by peripheral blood CD8+ T cells (PBM tumor-bearing mice): enhanced
expression of PD-1, Tim3, and Lag3 co-inhibitory receptors on splenic CD8+ T cells (PBM tumor-bearing mice): reduced
gMDSC and mMDSC in the peripheral blood (PBM tumor-bearing mice): decreased
number of CD8+ T cells in the spleens (PBM tumor-bearing mice): significantly increased
number of MDSCs in the spleens (PBM tumor-bearing mice): significantly reduced
STING-dependent activation of BMDCs (IFNβ and CXCL10 expression) [3]: not observed
